Source: patent US10959432B2, “Microbiocidal oxadiazole derivatives” (Syngenta Participations AG, priority 2016, dated 2021)

Columns and labels:
[1] = test system: Uromyces viciae-fabae; assay: Fungicidal activity against Uromyces viciae-fabae / field bean / leaf disc preventative (faba-bean rust); type: in vivo; details: foliar, 288 h, 100 ppm in the applied formulation, field bean leaf discs, preventative (inoculated two hours after application), assessed 12 days after application, read-out: disease control compared to untreated control leaf discs
In short: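 Field bean leaf discs on water agar treated with 10 μl compound in acetone plus spreader, then spray-inoculated on the lower surface with Uromyces viciae-fabae spores 2 h later. Incubation at 22 °C, 18 h day, 70% RH; percent disease control versus untreated scored 12 days after application, compounds at 100 ppm.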

[2] = test system: Glomerella laqenarium (Colletotrichum lagenarium); assay: Fungicidal activity against Glomerella lagenarium (Colletotrichum lagenarium) liquid culture / cucumber / preventative (anthracnose); type: cell-based; details: Colletotrichum orbiculare; 20 ppm in the applied formulation; liquid culture in PDB, 24° C., 3 to 4 days after application; read-out: disease control compared to untreated control (inhibition of growth measured photometrically)
In short: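 Test compound, applied from DMSO solution, is combined with PDB containing conidia taken from cryogenic storage. After 3–4 days at 24 °C, growth is measured photometrically and antifungal activity expressed as percent relative to untreated control.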

[3] = test system: Puccinia recondita f. sp. tritici; assay: Fungicidal activity against Puccinia recondita f. sp. tritici / wheat / leaf disc curative (brown rust); type: in vivo; details: foliar, 200 ppm in the applied formulation, wheat leaf segments cv. Kanzler, curative (applied 1 day after inoculation), assessed 6 to 8 days after application, read-out: disease control compared to untreated control leaf disks
In short: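 Curative test: compound, diluted from DMSO stock into water, applied one day after spore inoculation of wheat (cv. Kanzler) leaf segments kept on agar in darkness at 19° C. and 75% RH. Climate-cabinet incubation (19° C., 75% RH, 12 h photoperiod); disease control relative to untreated read 6–8 days post-application.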

[4] = test system: Phakopsora pachyrhizi; assay: Fungicidal activity against Phakopsora pachyrhizi / soybean / leaf disc preventative (Asian soybean rust); type: in vivo; details: foliar, 200 ppm in the applied formulation, soybean leaf disks, preventative (inoculated one day after application), assessed 12 to 14 days after application, read-out: disease control compared to untreated control leaf disks
In short: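 Preventative test: compound applied to soybean leaf discs a day before spore inoculation of the lower surface. Discs kept at 20° C and 75% rh, first 24-36 h in darkness, then under 12 h light/day; disease control relative to untreated discs rated 12 to 14 days post-application.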

[5] = test system: Puccinia recondita f. sp. tritici; assay: Fungicidal activity against Puccinia recondita f. sp. tritici / wheat / leaf disc preventative (brown rust); type: in vivo; details: foliar, 200 ppm in the applied formulation, wheat leaf segments cv. Kanzler, preventative (inoculated 1 day after application), assessed 7 to 9 days after application, read-out: disease control compared to untreated control leaf disks
In short: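 Preventative leaf-segment test: compound sprayed at 200 ppm onto wheat (cv. Kanzler) segments, brown rust spores applied 1 day after. Kept at 19C and 75% rh under 12 h light/dark cycles; disease control versus untreated check read 7 to 9 days post-application.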

O=C(NC1CCCSC1)c1ccc(-c2noc(C(F)(F)F)n2)cc1F (centres unmarked) [Compound 1b.5, 2-fluoro-N-tetrahydrothiopyran-3-yl-4-[5-(trifluoromethyl)-1,2,4-oxadiazol-3-yl]benzamide]
≥ 80%: pest or weed control at 100 ppm [1] | inhibition at 20 ppm [2] | pest or weed control at 200 ppm [3] | pest or weed control at 200 ppm [4] | pest or weed control at 200 ppm [5]

CN(CC1COCCO1)C(=O)c1ccc(-c2noc(C(F)(F)F)n2)cc1F (centres unmarked) [Compound 1b.9, N-(1,4-dioxan-2-ylmethyl)-2-fluoro-N-methyl-4-[5-(trifluoromethyl)-1,2,4-oxadiazol-3-yl]benzamide]
≥ 80%: pest or weed control at 100 ppm [1] | inhibition at 20 ppm [2] | pest or weed control at 200 ppm [3] | pest or weed control at 200 ppm [4] | pest or weed control at 200 ppm [5]

O=C(NC1CCCC1(F)F)c1ccc(-c2noc(C(F)(F)F)n2)cc1 (centres unmarked) [Compound 2a.9, N-(2,2-difluorocyclopentyl)-4-[5-(trifluoromethyl)-1,2,4-oxadiazol-3-yl]benzamide]
≥ 80%: pest or weed control at 100 ppm [1] | inhibition at 20 ppm [2] | pest or weed control at 200 ppm [3] | pest or weed control at 200 ppm [4] | pest or weed control at 200 ppm [5]

O=C(NC1CCC1)c1ccc(-c2noc(C(F)(F)F)n2)cc1F [Compound 2b.3, N-cyclobutyl-2-fluoro-4-[5-(trifluoromethyl)-1,2,4-oxadiazol-3-yl]benzamide]
≥ 80%: pest or weed control at 100 ppm [1] | inhibition at 20 ppm [2] | pest or weed control at 200 ppm [3] | pest or weed control at 200 ppm [4] | pest or weed control at 200 ppm [5]

O=C(NCC1CC(F)(F)C1(F)F)c1ccc(-c2noc(C(F)(F)F)n2)cc1F (centres unmarked) [Compound 2b.4, 2-fluoro-N-[(2,2,3,3-tetrafluorocyclobuty)methyl]-4-[5-(trifluoromethyl)-1,2,4-oxadiazol-3-yl]benzamide]
≥ 80%: pest or weed control at 100 ppm [1] | inhibition at 20 ppm [2] | pest or weed control at 200 ppm [3] | pest or weed control at 200 ppm [4] | pest or weed control at 200 ppm [5]

CC(NC(=O)c1ccc(-c2noc(C(F)(F)F)n2)cc1F)C1CC1 (centres unmarked) [Compound 2b.5, N-(1-cyclopropylethyl)-2-fluoro-4-[5-(trifluoromethyl)-1,2,4-oxadiazol-3-yl]benzamide]
≥ 80%: pest or weed control at 100 ppm [1] | inhibition at 20 ppm [2] | pest or weed control at 200 ppm [3] | pest or weed control at 200 ppm [4] | pest or weed control at 200 ppm [5]

CN(CC(=O)NC(C)(C)C)C(=O)c1ccc(-c2noc(C(F)(F)F)n2)cc1 [Compound 3a.3, N-[2-(tert-butylamino)-2-oxo-ethyl]-N-methyl-4-[5-(trifluoromethyl)-1,2,4-oxadiazol-3-yl]benzamide]
≥ 80%: pest or weed control at 100 ppm [1] | inhibition at 20 ppm [2] | pest or weed control at 200 ppm [3] | pest or weed control at 200 ppm [4] | pest or weed control at 200 ppm [5]

COc1ccc(CNC(=O)c2ccc(-c3noc(C(F)(F)F)n3)cc2)c(OC)c1 [Compound 4a.13, N-[(2,4-dimethoxyphenyl)methyl]-4-[5-(trifluoromethyl)-1,2,4-oxadiazol-3-yl]benzamide]
≥ 80%: pest or weed control at 100 ppm [1] | inhibition at 20 ppm [2] | pest or weed control at 200 ppm [3] | pest or weed control at 200 ppm [4] | pest or weed control at 200 ppm [5]

CN(Cc1ccccc1F)C(=O)c1ccc(-c2noc(C(F)(F)F)n2)cc1F [Compound 4b.9, 2-fluoro-N-[(2-fluorophenyl)methyl]-N-methyl-4-[5-(trifluoromethyl)-1,2,4-oxadiazol-3-yl]benzamide]
≥ 80%: pest or weed control at 100 ppm [1] | inhibition at 20 ppm [2] | pest or weed control at 200 ppm [3] | pest or weed control at 200 ppm [4] | pest or weed control at 200 ppm [5]

CN(Cc1ccc(Cl)nc1)C(=O)c1ccc(-c2noc(C(F)(F)F)n2)cc1 [Compound 5a.9, N-[(6-chloro-3-pyridyl)methyl]-N-methyl-4-[5-(trifluoromethyl)-1,2,4-oxadiazol-3-yl]benzamide]
≥ 80%: pest or weed control at 100 ppm [1] | inhibition at 20 ppm [2] | pest or weed control at 200 ppm [3] | pest or weed control at 200 ppm [4] | pest or weed control at 200 ppm [5]
